For series [1], the target named is T1, human Kv3.1 channels (hKv3.1) (Homo sapiens, UniProt P48547).
T1 sequence (P48547 1-501 limits assumed): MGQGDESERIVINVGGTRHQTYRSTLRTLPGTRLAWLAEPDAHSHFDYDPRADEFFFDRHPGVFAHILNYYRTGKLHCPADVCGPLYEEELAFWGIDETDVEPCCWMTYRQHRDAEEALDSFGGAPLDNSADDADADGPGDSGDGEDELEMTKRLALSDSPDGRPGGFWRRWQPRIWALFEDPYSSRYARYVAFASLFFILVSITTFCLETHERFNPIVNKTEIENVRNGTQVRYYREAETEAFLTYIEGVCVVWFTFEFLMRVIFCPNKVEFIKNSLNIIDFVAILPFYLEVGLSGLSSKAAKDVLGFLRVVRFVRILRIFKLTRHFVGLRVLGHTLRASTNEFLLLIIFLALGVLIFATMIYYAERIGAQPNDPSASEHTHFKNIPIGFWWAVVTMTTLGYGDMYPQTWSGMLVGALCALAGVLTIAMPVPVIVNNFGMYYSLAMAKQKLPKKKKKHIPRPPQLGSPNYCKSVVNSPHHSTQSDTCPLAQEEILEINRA
The experiment in a line: Measurement of Kv3 channel modulation: Kv3.1 assay (IonWorks Quattro whole-cell electrophysiology). The format is cell-based. The note with it: for Kv3.1 max R %: normalised to maximum effect of reference compound (50 microM); for EC50: rounded to one decimal place, read-out: Kv3.1 pEC50 (converted). As for the experimental part: The ability of the compounds of the invention to modulate the voltage-gated potassium channel subtypes Kv3.4/Kv3.3/Kv3.2/Kv3.1 may be determined using the following assay. Analogous methods may be used to investigate the ability of the compounds of the invention to modulate other channel subtypes.
Human embryonic kidney (HEK)-hKv3.1 cell line is generated by transfecting HEK-293 cells with an expression vector with human Kv3.1 (NM_004976.4). Cells are cultured with MEM supplemented with 10% Heat-Inactivated FBS, 2 mM L-glutamine, 1% Penicillin-Streptomycin, and 0.6 mg/ml of Geneticin (G418). HEK-hKv3.1b cells were amplified in T175 cm2 flask at 37° C. with 5% CO2, using MEM amplification medium, containing the G418 selection antibiotic (0.6 mg/ml). Cells were detached every 3-4 days, using DPBS to wash twice the flask, then TrypLE to dislodge the cells, and re-plated at a density of 2-4×10^6 cells/flask.
The day of the experiment, cells are removed from the incubator and the culture medium removed. Cells are washed with 5 ml of Dulbecco's PBS (DPBS) calcium and magnesium free and detached by the addition of 3 ml Versene (Invitrogen, Italy) followed by a brief incubation at 37° C. for 5 minutes. The flask is tapped to dislodge cells and 10 ml of DPBS containing calcium and magnesium is added to prepare a cell suspension. The cell suspension is then placed into a 15 ml centrifuge tube and centrifuged for 2 min at 1200 rpm. After centrifugation, the supernatant is removed and the cell pellet re-suspended in 4 ml of DPBS containing calcium and magnesium using a 5 ml pipette to break up the pellet. Cell suspension volume is then corrected to give a cell concentration for the assay of approximately 3 million cells per ml.
Experiments are conducted at r.t. using IonWorks Quattro™ planar array electrophysiology technology (Molecular Devices Corp.) with PatchPlate™ PPC. Stimulation protocols and data acquisition are carried out using a microcomputer (Dell Pentium 4). Planar electrode hole resistances (Rp) are determined by applying a 10 mV voltage step across each well. These measurements are performed before cell addition. After cell addition and seal formation, a seal test is performed by applying a voltage step from −80 mV to −70 mV for 160 ms. Following this, amphotericin-B solution is added to the intracellular face of the electrode to achieve intracellular access. Cells are held at −70 mV. Leak subtraction is conducted in all experiments by applying 50 ms hyperpolarizing (10 mV) prepulses to evoke leak currents followed by a 20 ms period at the holding potential before test pulses.
For hKv3.2 and hKv3.1, assays from the holding potential of −70 mV, a first test pulse at −15 mV was applied for 100 ms and after 100 ms at −70 mV a second pulse at +40 mV was applied for 50 ms. Cells were then maintained for 100 ms at −100 mV and another pulse from […] to +40 mV (duration 50 ms) was applied to clamp later the voltage at −40 mV during 200 ms
The intracellular solution contains the following (in mM): K-gluconate 100, KCl 54, MgCl2 3.2, HEPES 5, adjusted to pH 7.3 with KOH. Amphotericin-B solution is prepared as 50 mg/ml stock solution in DMSO and diluted to a final working concentration of 0.1 mg/ml in intracellular solution.
Compounds of use in the invention (or reference compounds such as N-cyclohexyl-N-[(7,8-dimethyl-2-oxo-1,2-dihydro-3-quinolinyl)methyl]-N′-phenylurea) are dissolved in dimethylsulfoxide (DMSO) at a stock concentration of 10 mM. […] Each dilution (1 μL) is transferred to another compound plate and external solution containing 0.05% pluronic acid (66 μL) is added. 3.5 μL from each plate containing a compound of the invention is added and incubated with the cells during the IonWorks Quattro™ experiment. The final assay dilution is 200 and the final compound concentrations are in the range 50 μM to 50 nM.
In general terms: The patch-clamp technique gives a direct electrical read-out from membranes.

A short description of series [2]: Determination of in vivo pharmacokinetic parameters (blood and brain concentrations). The following applies: male, rat; for Kp: brain and blood, oral dosing 1 mg/kg, read-out: AUC B/B (brain/blood) ratio; for Kp at 0.5 h: brain and heart blood, intravenous, 0.5 mg/kg, 0.5 h after dose administration, read-out: Brain/Heart Blood conc @0.5 hr. Here is the method: Adult male rats (Charles River, Italy) are dosed with test compound orally at 1 mg/kg (5 ml/kg, in 5% v/v DMSO, 0.5% w/v HPMC in water) and intravenously at 0.5 mg/kg (2 ml/kg, in 5% v/v DMSO 40% w/v PEG400 in saline). After oral administration, blood samples are collected under deep Isofluorane anesthesia from the portal vein and heart of each rat (1 rat per time point). After intravenous administration, serial blood samples are collected from the lateral tail vein of each rat. Blood and brain samples are collected at a single timepoint of 0.5 h after dose administration for these animals. In all cases, blood samples are collected into potassium EDTA tubes.
A further group of rats (n=1 per test compound) receive a single intravenous administration of the PgP transport inhibitor, Elacridar (3 mg/kg) shortly before the oral administration of the test compound at 1 mg/kg, as above.
Blood and brain samples can be assayed for test compound concentration using a method based on protein precipitation with acetonitrile followed by HPLC/MS-MS analysis with an optimized analytical method.
The concentrations of test compound in blood (expressed as ng/ml) and brain (expressed as ng/g) at the different time points following either oral or intravenous dosing are analysed using a non-compartmental pharmacokinetic model using WinNonLin Professional version 4.1. The following parameters are derived:
Intravenous dosing: Maximum concentration over time (Cmax), integrated concentration over time (AUC), clearance (Clb), volume of distribution (Vss), half-life (t1/2) and Brain/Heart Blood conc @0.5 hr.
Oral dosing: Cmax, time of maximum concentration (Tmax), AUC, bioavailability (F %), fraction absorbed (Fa %), blood to brain ratio (AUC B/B), and Fold-change in AUC B/B in the presence of Elacridar.

Where [3] appears, read: Table 2, Example compounds, some compounds with two data sets (n given in cell).

Read-outs that look alike come from different tables or passages of the source.

For `O=c1[nH]c2cccnc2n1-c1cnc(Oc2cccc3c2C2(CC2)CO3)cn1` [Example 8, 3-(5-spiro[2H-benzofuran-3,1′-cyclopropane]-4-yloxypyrazin-2-yl)-1H-imidazo[4,5-b]pyridin-2-one], in series [1] (Table 2, Example compounds), the “Kv3.1 max R %” value stood at 204%. The EC50 in series [1] (setting [3]) was 200 nM. Besides, in series [2], the Kp is under 0.1 and the Kp at 0.5 h was under 0.1.
As to `O=c1[nH]c2cccnc2n1-c1cnc(Oc2cccc3c2C2(CC2)CO3)nc1` [Example 13, 3-(2-{2H-spiro[1-benzofuran-3,1′-cyclopropane]oxy}pyrimidin-5-yl)-1H,2H,3H-imidazo[4,5-b]pyridin-2-one], the “Kv3.1 max R %” value in series [1] (Table 2, Example compounds) came out at 194%. Besides, the EC50 in series [1] (setting [3]) was 200 nM. In series [2], the Kp worked out at 0.12 and the Kp at 0.5 h was determined as 0.13.
For the molecule `Cc1ncc2[nH]c(=O)n(-c3ccc(Oc4cccc(OC(F)(F)F)c4)nc3)c2n1` [Example 24, 2-methyl-9-[6-[3-(trifluoromethoxy)phenoxy]-3-pyridyl]-7H-purin-8-one], the “Kv3.1 max R %” value in series [1] (Table 2, Example compounds) is 144%. Further, the EC50 in series [1] (setting [3]) is 1000 nM. Moreover, in series [2], the Kp was 0.29 and the Kp at 0.5 h came out at 0.33.
Regarding `Cc1ncc2[nH]c(=O)n(-c3ccc(Oc4cccc5c4C4(CC4)CO5)nc3)c2n1` [Example 26, 2-methyl-9-(6-spiro[2H-benzofuran-3,1′-cyclopropane]-4-yloxy-3-pyridyl)-7H-purin-8-one], in series [1] (Table 2, Example compounds), the “Kv3.1 max R %” value amounted to 135%. Besides, the EC50 in series [1] (setting [3]) is 50.1 nM. In series [2], the Kp was under 0.1 and the Kp at 0.5 h is under 0.1.
On to `CC1(C)COc2cccc(Oc3ncc(-n4c(=O)[nH]c5cccnc54)cn3)c21` [Example 33, 3-[2-[(3,3-dimethyl-2H-benzofuran-4-yl)oxy]pyrimidin-5-yl]-1H-imidazo[4,5-b]pyridin-2-one], for which the “Kv3.1 max R %” value in series [1] (Table 2, Example compounds) was found to be 194%. In addition, in series [1] (setting [3]), the EC50 was 794 nM. The EC50 in series [1] (Table 3, Reference Examples and corresponding Examples) was 631 nM. Besides, in series [2], the Kp worked out at 0.65 and the Kp at 0.5 h was 0.63.
